Nine compounds from BindingDB's records for aid1799746 (Csar, 2012) can be followed below.

In general, Kd refers to the concentration at which binding is half-saturated. High values mean lower affinity, low ones higher affinity.

The target of this test is T1, UDP-3-O-acyl-N-acetylglucosamine deacetylase (Aquifex aeolicus (strain VF5), UniProt O67648).
T1 sequence (O67648 whole entry): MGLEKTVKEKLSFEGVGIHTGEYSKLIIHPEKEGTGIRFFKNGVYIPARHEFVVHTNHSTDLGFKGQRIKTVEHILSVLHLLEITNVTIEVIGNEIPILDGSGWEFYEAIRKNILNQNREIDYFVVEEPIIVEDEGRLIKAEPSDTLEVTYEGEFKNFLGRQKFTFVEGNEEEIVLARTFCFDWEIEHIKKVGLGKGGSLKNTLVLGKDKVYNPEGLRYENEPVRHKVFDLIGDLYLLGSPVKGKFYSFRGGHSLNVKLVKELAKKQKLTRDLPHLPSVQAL
In words: ITC. To be noted: pH 7; 25 °C.
The compound `C[C@@H](O)[C@H](NC(=O)c1ccc(C#Cc2ccccc2)cc1)C(=O)NO` [CS259] came in with a Kd of 1210 nM.

As to `O=C(NO)[C@H]1COC(c2cc3cc(F)ccc3[nH]2)=N1` [CS272], the Kd worked out at 2250 nM.

Consider `O=C(NO)[C@H]1COC(c2ccc(F)cc2)=N1` [CS279], for which the Kd amounted to 14800 nM.

In turn, `O=C(NO)[C@H]1COC(c2ccc(F)c(C(F)(F)F)c2)=N1` [CS271] showed a Kd of 3960 nM.

The compound `C[C@@H](O)[C@H](NC(=O)c1ccc(-c2ccccc2)cc1)C(=O)NO` [CS263] yielded a Kd of 224 nM.

For `C[C@@H](O)[C@H](NC(=O)c1ccc(-c2ccc(Br)cc2)cc1)C(=O)NO` [CS258], the Kd came to 122 nM.

Regarding `NC[C@H](NC(=O)c1ccc(-c2ccc(Br)cc2)cc1)C(=O)NO` [CS250], binding was put at a Kd of 242 nM.

Consider `NC[C@H](NC(=O)c1ccc(-c2ccccc2)cc1)C(=O)NO` [CS249], for which the dissociation constant Kd was found to be 732 nM.

The compound `O=C(NO)c1csc(-c2ccc(F)c(C(F)(F)F)c2)n1` [CS277] gave a Kd of 3500 nM.
